From patent publication US11447466B2, “Substituted indole compounds useful as inhibitors of TLR7/8/9” (BRISTOL-MYERS SQUIBB COMPANY, priority 2017, dated 2022)

Experiments:
Assay type in all cases: cell-based
human TLR9 = target: T1, human TLR9 (Homo sapiens, UniProt Q9NR96); assay: TLR9 inhibition reporter assay (HEK-Blue SEAP reporter, ODN2006 stimulation); settings: HEK-Blue cells overexpressing human TLR9, SEAP reporter, ODN2006 5 nM, 22 hour incubation
T1 construct: host or cells: HEK-Blue cells
T1 sequence (Q9NR96 26-1032): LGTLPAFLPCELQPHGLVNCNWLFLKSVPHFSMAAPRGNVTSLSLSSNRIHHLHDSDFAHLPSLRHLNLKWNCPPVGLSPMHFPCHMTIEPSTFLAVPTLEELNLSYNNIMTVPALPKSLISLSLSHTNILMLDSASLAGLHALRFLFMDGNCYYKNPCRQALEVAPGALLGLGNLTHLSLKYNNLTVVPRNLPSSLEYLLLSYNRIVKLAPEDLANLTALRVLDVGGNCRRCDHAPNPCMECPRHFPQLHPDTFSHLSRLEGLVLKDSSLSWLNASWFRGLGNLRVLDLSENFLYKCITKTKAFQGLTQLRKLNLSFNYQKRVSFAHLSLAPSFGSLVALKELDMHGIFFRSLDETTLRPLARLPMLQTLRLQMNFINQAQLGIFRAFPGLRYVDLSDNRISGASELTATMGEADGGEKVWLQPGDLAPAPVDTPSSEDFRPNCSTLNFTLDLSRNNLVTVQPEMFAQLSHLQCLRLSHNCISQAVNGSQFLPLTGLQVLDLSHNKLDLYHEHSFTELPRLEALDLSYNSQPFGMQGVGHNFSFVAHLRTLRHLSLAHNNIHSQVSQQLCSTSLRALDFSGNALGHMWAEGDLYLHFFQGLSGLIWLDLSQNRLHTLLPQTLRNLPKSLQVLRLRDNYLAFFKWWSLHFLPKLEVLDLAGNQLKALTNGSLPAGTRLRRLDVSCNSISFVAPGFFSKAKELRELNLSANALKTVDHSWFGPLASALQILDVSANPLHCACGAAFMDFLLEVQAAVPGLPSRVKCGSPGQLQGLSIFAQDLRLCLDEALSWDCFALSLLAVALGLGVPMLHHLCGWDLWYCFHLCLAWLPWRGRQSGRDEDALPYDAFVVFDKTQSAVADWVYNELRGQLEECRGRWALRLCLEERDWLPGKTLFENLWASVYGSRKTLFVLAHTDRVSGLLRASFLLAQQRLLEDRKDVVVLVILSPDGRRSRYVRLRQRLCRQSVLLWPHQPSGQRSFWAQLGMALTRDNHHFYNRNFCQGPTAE
Description: (§1) TLR7/8/9 Inhibition Reporter Assays
(§2) HEK-Blue™-cells (Invivogen) overexpressing human TLR7, TLR8 or TLR9 receptors were used for screening inhibitors of these receptors using an inducible SEAP (secreted embryonic alkaline phosphatase) reporter gene under the control of the IFN-β minimal promoter fused to five NF-κB and AP-1-binding sites. Briefly, cells are seeded into Greiner 384 well plates (15000 cells per well for TLR7, 20,000 for TLR8 and 25,000 for TLR9) and then treated with test compounds in DMSO to yield a final dose response concentration range of 0.05 nM-50 μM. After a 30 minute compound pre-treatment at room temperature, the cells are then stimulated with a TLR7 ligand (gardiquimod at a final concentration of 7.5 μM), TLR8 ligand (R848 at a final concentration of 15.9 μM) or TLR9 ligand (ODN2006 at a final concentration of 5 nM) to activate NF-κB and AP-1 which induce the production of SEAP. After a 22 hour incubation at 37° C., 5% CO2, SEAP levels are determined with the addition of HEK-Blue™ Detection reagent (Invivogen), a cell culture medium that allows for detection of SEAP, according to manufacturer's specifications. The percent inhibition is determined as the % reduction in the HEK-Blue signal present in wells treated with agonist plus DMSO alone compared to wells treated with a known inhibitor.

human TLR7 = target: T2, human TLR7 (Homo sapiens, UniProt Q9NYK1); assay: TLR7 inhibition reporter assay (HEK-Blue SEAP reporter, gardiquimod stimulation); settings: HEK-Blue cells overexpressing human TLR7, SEAP reporter, gardiquimod 7.5 μM, 22 hour incubation
T2 construct: host or cells: HEK-Blue cells
T2 sequence (Q9NYK1 27-1049): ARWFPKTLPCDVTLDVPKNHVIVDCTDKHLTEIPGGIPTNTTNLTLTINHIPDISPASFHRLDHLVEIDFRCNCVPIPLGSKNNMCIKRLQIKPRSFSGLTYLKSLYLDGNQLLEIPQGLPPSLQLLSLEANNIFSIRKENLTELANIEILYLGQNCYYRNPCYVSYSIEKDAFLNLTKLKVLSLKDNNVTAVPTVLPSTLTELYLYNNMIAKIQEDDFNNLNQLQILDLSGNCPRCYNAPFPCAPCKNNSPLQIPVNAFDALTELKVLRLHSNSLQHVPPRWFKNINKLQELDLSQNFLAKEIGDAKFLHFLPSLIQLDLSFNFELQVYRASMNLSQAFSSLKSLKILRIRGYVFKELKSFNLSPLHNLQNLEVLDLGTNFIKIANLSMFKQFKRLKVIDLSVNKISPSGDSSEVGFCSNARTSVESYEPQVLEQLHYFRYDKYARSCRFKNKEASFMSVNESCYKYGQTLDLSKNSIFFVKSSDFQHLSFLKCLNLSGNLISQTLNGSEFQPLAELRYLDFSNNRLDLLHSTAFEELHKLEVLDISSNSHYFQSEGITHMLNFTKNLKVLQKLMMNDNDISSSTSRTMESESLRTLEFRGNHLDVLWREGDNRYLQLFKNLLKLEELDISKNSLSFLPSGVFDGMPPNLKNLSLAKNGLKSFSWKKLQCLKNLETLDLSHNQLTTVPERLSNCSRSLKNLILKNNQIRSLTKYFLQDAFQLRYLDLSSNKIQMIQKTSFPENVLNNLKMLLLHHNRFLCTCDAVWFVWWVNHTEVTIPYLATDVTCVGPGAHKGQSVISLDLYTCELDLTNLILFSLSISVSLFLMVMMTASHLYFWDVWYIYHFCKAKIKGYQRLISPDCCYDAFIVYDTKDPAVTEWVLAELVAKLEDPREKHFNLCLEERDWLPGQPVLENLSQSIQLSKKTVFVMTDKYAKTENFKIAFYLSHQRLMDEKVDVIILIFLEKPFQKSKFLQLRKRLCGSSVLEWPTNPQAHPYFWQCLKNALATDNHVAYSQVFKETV
Description: as §1, §2

human TLR8 = target: T3, human TLR8 (Homo sapiens, UniProt Q9NR97); assay: TLR8 inhibition reporter assay (HEK-Blue SEAP reporter, R848 stimulation); settings: HEK-Blue cells overexpressing human TLR8, SEAP reporter, R848 15.9 μM, 22 hour incubation
T3 construct: host or cells: HEK-Blue cells
T3 sequence (Q9NR97 27-1041): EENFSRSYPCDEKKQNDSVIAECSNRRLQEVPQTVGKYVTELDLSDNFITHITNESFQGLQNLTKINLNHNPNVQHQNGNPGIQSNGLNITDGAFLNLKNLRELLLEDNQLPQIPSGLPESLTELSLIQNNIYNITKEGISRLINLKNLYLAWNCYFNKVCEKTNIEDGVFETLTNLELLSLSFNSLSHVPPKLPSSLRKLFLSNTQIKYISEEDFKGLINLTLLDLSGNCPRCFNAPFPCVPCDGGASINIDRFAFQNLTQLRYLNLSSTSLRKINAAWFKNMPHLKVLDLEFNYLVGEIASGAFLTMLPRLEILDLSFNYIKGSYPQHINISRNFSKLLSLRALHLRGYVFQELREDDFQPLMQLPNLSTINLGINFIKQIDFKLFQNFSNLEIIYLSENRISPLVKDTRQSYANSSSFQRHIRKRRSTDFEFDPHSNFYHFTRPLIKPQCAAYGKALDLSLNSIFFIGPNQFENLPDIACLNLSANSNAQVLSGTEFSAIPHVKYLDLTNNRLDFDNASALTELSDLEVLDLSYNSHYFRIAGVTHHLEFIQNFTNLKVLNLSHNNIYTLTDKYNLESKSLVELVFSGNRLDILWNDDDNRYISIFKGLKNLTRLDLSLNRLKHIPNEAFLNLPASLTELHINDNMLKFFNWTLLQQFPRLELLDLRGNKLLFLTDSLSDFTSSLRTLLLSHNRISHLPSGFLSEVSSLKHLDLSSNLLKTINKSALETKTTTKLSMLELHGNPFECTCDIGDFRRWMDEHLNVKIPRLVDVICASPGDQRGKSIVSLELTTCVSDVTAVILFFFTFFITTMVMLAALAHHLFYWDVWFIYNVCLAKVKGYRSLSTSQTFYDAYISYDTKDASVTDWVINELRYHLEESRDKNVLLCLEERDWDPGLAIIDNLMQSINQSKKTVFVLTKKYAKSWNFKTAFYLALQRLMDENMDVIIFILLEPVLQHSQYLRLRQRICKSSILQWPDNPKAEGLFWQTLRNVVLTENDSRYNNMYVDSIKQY
Description: as §1, §2

IC50 (human TLR9)	IC50 (human TLR7)	IC50 (human TLR8)	Compound
4.85 µM	0.0053 µM	0.0033 µM	Cc1cc(-c2[nH]c3ccc(C4CCNCC4)cc3c2C(C)C)nn(C)c1=O [Example 11, 6-(3-isopropyl-5-(piperidin-4-yl)-1H-indol-2-yl)-2,4-dimethylpyridazin-3(2H)-one]
5.23 µM	0.0247 µM	0.029 µM	Cc1nc(-c2[nH]c3ccc(C4CCNCC4)cc3c2C(C)C)cn(C)c1=O [Example 12, 5-(3-isopropyl-5-(piperidin-4-yl)-1H-indol-2-yl)-1,3-dimethylpyrazin-2(1H)-one]
0.593 µM	0.0182 µM	0.0339 µM	CC(C)c1c(-c2cc(F)c(=O)n(C)c2)[nH]c2ccc(C3CCNCC3)cc12 [Example 13, 3-fluoro-5-(3-isopropyl-5-(piperidin-4-yl)-1H-indol-2-yl)-1-methylpyridin-2(1H)-one]
1.65 µM	0.0035 µM	0.0036 µM	Cc1c(-c2[nH]c3ccc(C4CCNCC4)cc3c2C(C)C)cn(C)c(=O)c1C [Example 14, 5-(3-isopropyl-5-(piperidin-4-yl)-1H-indol-2-yl)-1,3,4-trimethylpyridin-2(1H)-one]
0.179 µM	0.0019 µM	0.0033 µM	CCn1cc(-c2[nH]c3ccc(C4CCNCC4)cc3c2C(C)C)cc(C)c1=O [Example 15, 1-ethyl-5-(3-isopropyl-5-(piperidin-4-yl)-1H-indol-2-yl)-3-methylpyridin-2(1H)-one]
0.914 µM	0.302 µM	0.173 µM	CC(C)c1c(-c2ccc(=O)n(C(C)C)c2)[nH]c2ccc(C3CCNCC3)cc12 [Example 16, 1-isopropyl-5-(3-isopropyl-5-(piperidin-4-yl)-1H-indol-2-yl)pyridin-2(1H)-one]
0.597 µM	0.0211 µM	0.0122 µM	Cc1c(-c2[nH]c3ccc(C4CCNCC4)cc3c2C(C)C)nn(C)c(=O)c1C [Example 17, 6-(3-isopropyl-5-(piperidin-4-yl)-1H-indol-2-yl)-2,4,5-trimethylpyridazin-3(2H)-one]
6.65 µM	0.0183 µM	0.0147 µM	CCn1nc(-c2[nH]c3ccc(C4CCNCC4)cc3c2C(C)C)cc(C)c1=O [Example 18, 2-ethyl-6-(3-isopropyl-5-(piperidin-4-yl)-1H-indol-2-yl)-4-methylpyridazin-3(2H)-one]
0.792 µM	0.0257 µM	0.0397 µM	Cc1c(-c2[nH]c3ccc(C4CCNCC4)cc3c2C(C)C)cn(C)c(=O)c1N [Example 19, 3-amino-5-(3-isopropyl-5-(piperidin-4-yl)-1H-indol-2-yl)-1,4-dimethylpyridin-2(1H)-one]
1.79 µM	0.006 µM	0.017 µM	COc1cc(-c2[nH]c3ccc(C4CCNCC4)cc3c2C(C)C)cn(C)c1=O [Example 20, 5-(3-isopropyl-5-(piperidin-4-yl)-1H-indol-2-yl)-3-methoxy-1-methylpyridin-2(1H)-one]
6.54 µM	0.105 µM	0.263 µM	CC(C)c1c(-c2cn(C)c(=O)n(C)c2=O)[nH]c2ccc(C3CCNCC3)cc12 [Example 21, 5-(3-isopropyl-5-(piperidin-4-yl)-1H-indol-2-yl)-1,3-dimethylpyrimidine-2,4(1H,3H)-dione]
2.55 µM	0.0011 µM	0.0107 µM	CC(C)c1c(-c2cc(Cl)c(=O)n(C)c2)[nH]c2ccc(C3CCNCC3)cc12 [Example 22, 3-chloro-5-(3-isopropyl-5-(piperidin-4-yl)-1H-indol-2-yl)-1-methylpyridin-2(1H)-one]
6.27 µM	0.0628 µM	0.0151 µM	Cc1c(-c2[nH]c3ccc(C4CCNCC4)cc3c2C(C)C)cc(C#N)c(=O)n1C [Example 23, 5-(3-isopropyl-5-(piperidin-4-yl)-1H-indol-2-yl)-1,6-dimethyl-2-oxo-1,2-dihydropyridine-3-carbonitrile]
3.76 µM	0.0759 µM	0.0107 µM	Cc1c(-c2[nH]c3ccc(C4CCNCC4)cc3c2C(C)C)cn(C)c(=O)c1C#N [Example 24, 5-(3-isopropyl-5-(piperidin-4-yl)-1H-indol-2-yl)-1,4-dimethyl-2-oxo-1,2-dihydropyridine-3-carbonitrile]
